Reference: patent publication US20130109682A1, “CYCLIC ETHER COMPOUNDS USEFUL AS KINASE INHIBITORS” (NOVARTIS AG, priority 2010, published 2013)
Like-named read-outs stand apart in the source and are kept apart here.

Legend:
KDR kinase = KDR kinase (Homo sapiens, UniProt P35968); assay: KDR kinase inhibition assay (LanthaScreen TR-FRET); type: biochemical
Summary of the method: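 Human KDR kinase (0.38 nM) phosphorylated poly-EAY (50 nM) with ATP in 50 mM Tris pH 7.4, 2 mM DTT, 10 mM Mg, 1 mM Ca for 1 h. Reaction stopped with EDTA, Tb-labeled P-20 antibody added for 45 min, and TR-FRET read as end point.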

hERG = target: T1, hERG (Homo sapiens, UniProt Q12809); assay: hERG binding assay ([3H] dofetilide displacement); settings: read-out: HERGdof IC50
T1 construct: host or cells: crude membrane suspension
Summary of the method: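 Displacement of 2.5 nM [3H]dofetilide from crude hERG membranes (ca. 15 μg protein) by filtration binding, 90 min at room temperature, 0.5% DMSO final. Non-specific binding defined with 25 μM terfenadine; compounds run as 9-point duplicate curves from 30 μM to 3 nM.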

cABLT315 kinase = cABLT315 kinase (Homo sapiens, UniProt P00519); assay: cABLT315 kinase Caliper assay; type: biochemical
Method: PKCα and cABLT315 Kinase Caliper Assays
Assays were performed in 384 well microtiter plates. Each assay plate contained 8-point serial dilutions for test compounds, as well as two 16-point serial dilutions of staurosporine as reference compound, plus 16 high- and 16 low controls. Liquid handling and incubation steps were done on a Thermo CatX workstation equipped with a Innovadyne Nanodrop Express. Between pipetting steps, tips were cleaned in wash cycles using wash buffer. Plates with terminated kinase reactions were transferred to the Caliper LC3000 workstations for reading. Phosphorylated and unphosphorylated peptides were separated using the Caliper microfluidic mobilitishift technology and Kinase activities were calculated from the amounts of formed phospho-peptide.
Kinase reactions were prepared in 384 low volume plates by the following sequence:
1. 0.05 μA Compound (start with 1.8 mM in 90% DMSO/10% H2O)
2. +4.5 μl 2× peptide/ATP solution
3. +4.5 μl 2× enzyme solution
4. Incubate for 60 min at 30° C.
4. +16 μl stop/run buffer
Independent of the kinase, all reactions were done performed in 50 mM HEPES, pH 7.5, 1 mM DTT, 0.02% Tween20, 0.02% BSA, and 0.6% DMSO. For cABLT315 assay specific details were as follows: [cABLT315 kinase]=2.4 nM, [ATP]=10 uM, [peptide]=2 uM, [Mg]=10 mM. For PKCα, assay specific details were as follows: [kinase]=0.012 nM, [ATP]=17 uM, [peptide]=1 uM, [Mg]=7 mM, [Ca]=0.2 mM.

PIM2 = PIM2 (Homo sapiens, UniProt Q9P1W9); assay: Pim 2 AlphaScreen assay (high ATP); type: biochemical; settings: read-out: Pim2 IC50
Summary of the method: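 This is a bead-based AlphaScreen run at high ATP (11-125× Km) with biotin-Bad peptide (100 nM in the substrate mix), in 50 mM Hepes pH 7.5, 5 mM MgCl2, 0.05% BSA, 0.01% Tween-20, 1 mM DTT and 2.5% DMSO final. After ~2 h the reaction was stopped with EDTA. Phospho-peptide was detected overnight with anti-phospho Ser/Thr antibody on Protein A and streptavidin beads, giving IC50.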

T1 sequence (Q12809 whole entry): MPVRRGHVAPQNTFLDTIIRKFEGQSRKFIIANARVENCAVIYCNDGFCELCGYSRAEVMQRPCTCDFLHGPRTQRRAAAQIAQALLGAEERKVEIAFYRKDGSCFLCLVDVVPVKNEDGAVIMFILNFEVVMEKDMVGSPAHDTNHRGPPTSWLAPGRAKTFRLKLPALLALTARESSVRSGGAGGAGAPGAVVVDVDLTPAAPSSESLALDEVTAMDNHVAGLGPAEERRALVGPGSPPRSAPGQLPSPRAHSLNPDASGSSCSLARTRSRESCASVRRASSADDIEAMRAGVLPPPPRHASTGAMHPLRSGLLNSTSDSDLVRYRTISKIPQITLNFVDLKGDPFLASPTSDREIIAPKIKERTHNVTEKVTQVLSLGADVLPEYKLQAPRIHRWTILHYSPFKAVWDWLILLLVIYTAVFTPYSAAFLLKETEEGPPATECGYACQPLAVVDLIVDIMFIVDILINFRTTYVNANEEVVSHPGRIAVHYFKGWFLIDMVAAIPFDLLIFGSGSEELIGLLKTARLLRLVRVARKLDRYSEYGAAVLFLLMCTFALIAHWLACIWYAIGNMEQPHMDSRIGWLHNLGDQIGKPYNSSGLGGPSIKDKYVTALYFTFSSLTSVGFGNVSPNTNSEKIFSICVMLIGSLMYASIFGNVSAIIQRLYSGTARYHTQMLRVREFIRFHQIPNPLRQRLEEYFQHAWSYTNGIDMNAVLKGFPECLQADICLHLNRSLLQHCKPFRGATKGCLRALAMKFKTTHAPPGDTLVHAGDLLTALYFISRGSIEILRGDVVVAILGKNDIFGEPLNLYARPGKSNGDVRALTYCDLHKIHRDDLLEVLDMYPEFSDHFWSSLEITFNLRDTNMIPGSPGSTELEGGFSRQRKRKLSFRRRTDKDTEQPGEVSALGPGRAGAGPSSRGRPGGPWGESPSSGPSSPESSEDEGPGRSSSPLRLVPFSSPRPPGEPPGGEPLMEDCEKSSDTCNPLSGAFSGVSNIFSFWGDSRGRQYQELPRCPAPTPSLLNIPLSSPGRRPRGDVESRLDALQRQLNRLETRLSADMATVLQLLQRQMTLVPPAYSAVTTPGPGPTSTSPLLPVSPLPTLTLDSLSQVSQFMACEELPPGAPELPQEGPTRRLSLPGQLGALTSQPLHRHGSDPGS
Chain of KDR kinase (P35968 20-1356): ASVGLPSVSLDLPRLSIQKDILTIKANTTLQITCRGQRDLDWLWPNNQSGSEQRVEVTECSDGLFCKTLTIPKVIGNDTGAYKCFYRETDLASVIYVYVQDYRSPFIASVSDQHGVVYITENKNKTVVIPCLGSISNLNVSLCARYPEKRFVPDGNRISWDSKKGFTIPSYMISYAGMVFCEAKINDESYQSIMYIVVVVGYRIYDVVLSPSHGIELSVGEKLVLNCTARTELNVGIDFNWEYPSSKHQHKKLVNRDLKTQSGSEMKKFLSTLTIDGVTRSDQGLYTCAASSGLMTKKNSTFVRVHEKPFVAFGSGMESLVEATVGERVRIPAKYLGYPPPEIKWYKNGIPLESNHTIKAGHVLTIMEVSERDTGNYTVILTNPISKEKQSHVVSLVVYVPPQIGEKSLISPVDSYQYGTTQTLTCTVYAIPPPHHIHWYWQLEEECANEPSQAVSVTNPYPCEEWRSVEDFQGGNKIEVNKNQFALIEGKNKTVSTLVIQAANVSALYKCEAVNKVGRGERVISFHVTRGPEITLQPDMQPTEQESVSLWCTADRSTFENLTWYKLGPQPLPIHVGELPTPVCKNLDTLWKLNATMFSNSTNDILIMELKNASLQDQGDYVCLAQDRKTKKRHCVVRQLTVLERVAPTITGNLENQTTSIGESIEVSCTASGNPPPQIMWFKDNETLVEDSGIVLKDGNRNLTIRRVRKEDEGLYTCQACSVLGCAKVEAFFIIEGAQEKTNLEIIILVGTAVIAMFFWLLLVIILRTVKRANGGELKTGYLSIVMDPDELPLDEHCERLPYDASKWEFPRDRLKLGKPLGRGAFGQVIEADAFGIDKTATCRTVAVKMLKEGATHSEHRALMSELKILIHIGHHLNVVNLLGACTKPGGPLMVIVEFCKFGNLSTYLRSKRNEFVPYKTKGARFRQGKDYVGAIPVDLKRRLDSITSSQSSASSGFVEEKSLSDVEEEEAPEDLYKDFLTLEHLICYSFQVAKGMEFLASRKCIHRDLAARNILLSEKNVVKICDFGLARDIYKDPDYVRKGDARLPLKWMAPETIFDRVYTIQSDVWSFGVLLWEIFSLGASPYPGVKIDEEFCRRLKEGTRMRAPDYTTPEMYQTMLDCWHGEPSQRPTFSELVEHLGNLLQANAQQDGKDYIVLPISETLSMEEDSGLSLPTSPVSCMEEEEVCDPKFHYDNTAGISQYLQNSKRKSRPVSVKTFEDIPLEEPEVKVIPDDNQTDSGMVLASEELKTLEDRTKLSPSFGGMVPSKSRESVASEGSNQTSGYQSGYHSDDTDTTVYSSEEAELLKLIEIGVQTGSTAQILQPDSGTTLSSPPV
Chain of PIM2 (Q9P1W9 whole entry): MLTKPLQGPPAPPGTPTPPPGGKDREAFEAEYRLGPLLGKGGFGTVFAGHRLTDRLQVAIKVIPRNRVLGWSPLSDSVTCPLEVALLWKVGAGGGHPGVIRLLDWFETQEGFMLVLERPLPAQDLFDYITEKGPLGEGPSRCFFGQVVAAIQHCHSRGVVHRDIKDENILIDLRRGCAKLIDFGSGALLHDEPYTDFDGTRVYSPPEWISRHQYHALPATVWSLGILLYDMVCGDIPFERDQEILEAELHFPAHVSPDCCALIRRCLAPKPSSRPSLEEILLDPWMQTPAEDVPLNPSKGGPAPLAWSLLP

Row | IC50 (KDR kinase) [µM] | IC50 (cABLT315 kinase) [µM] | IC50 (PIM2) [µM] | IC50 (cABLT315 kinase; Caliper assay) [µM] | Compound | IC50 (hERG; dofetilide displacement) [µM] | IC50 (hERG; hERG binding, dofetilide) [µM]
1 | > 10 | 9 | – | – | C[C@H]1O[C@@H](c2ccncc2NC(=O)c2nc(-c3ccccc3)ncc2N)C[C@@H](O)[C@]1(C)O [Example 32, 5-amino-N-(4-((2R,4R,5S,6R)-4,5-dihydroxy-5,6-dimethyltetrahydro-2H-pyran-2-yl)pyridin-3-yl)-2-phenylpyrimidine-4-carboxamide] | > 30 | –
2 | > 10 | 8 | – | – | CC[C@H]1O[C@@H](c2ccncc2NC(=O)c2nc(-c3ccccc3)ncc2N)C[C@@H](O)[C@@H]1O [Example 39, 5-amino-N-(4-((2R,4R,5S,6R)-6-ethyl-4,5-dihydroxytetrahydro-2H-pyran-2-yl)pyridin-3-yl)-2-phenylpyrimidine-4-carboxamide] | > 30 | –
3 | 0.22 | 0.65 | – | – | C[C@@H]1O[C@H](c2ccncc2NC(=O)c2nc(-c3ccccc3)cnc2N)[C@@H](F)[C@H](O)[C@@]1(C)O [Example 63, 3-amino-N-(4-((2R,3S,4R,5R,6S)-3-fluoro-4,5-dihydroxy-5,6-dimethyltetrahydro-2H-pyran-2-yl)pyridin-3-yl)-6-phenylpyrazine-2-carboxamide] | > 30 | –
4 | 0.016 | 0.086 | – | – | C[C@H]1O[C@@H](c2ccncc2NC(=O)c2nc(-c3ccccc3)cnc2N)C[C@@H](O)[C@]1(C)O [Example 84, 3-amino-N-(4-((2R,4R,5S,6R)-4,5-dihydroxy-5,6-dimethyltetrahydro-2H-pyran-2-yl)pyridin-3-yl)-6-phenylpyrazine-2-carboxamide] | > 30 | –
5 | 0.3 | 0.7 | – | – | C[C@@H]1O[C@H](c2ccncc2NC(=O)c2nc(-c3ccccc3)cnc2N)C[C@H](O)[C@@]1(C)O [Example 86, 3-amino-N-(4-((2S,4S,5R,6S)-4,5-dihydroxy-5,6-dimethyltetrahydro-2H-pyran-2-yl)pyridin-3-yl)-6-phenylpyrazine-2-carboxamide] | 25 | –

Continued, compound first:

Row | Compound | IC50 (KDR kinase) [µM] | IC50 (cABLT315 kinase) [µM] | IC50 (PIM2) [µM] | IC50 (cABLT315 kinase; Caliper assay) [µM] | IC50 (hERG; dofetilide displacement) [µM] | IC50 (hERG; hERG binding, dofetilide) [µM]
6 | C=C1[C@@H](O)C[C@@H](c2ccncc2NC(=O)c2nc(-c3ccccc3)cnc2N)OC12CC2 [Example 5, 3-amino-N-(4-((5S,7S)-7-hydroxy-8-methylene-4-oxaspiro[2.5]octan-5-yl)pyridin-3-yl)-6-phenylpyrazine-2-carboxamide] | 0.01 | 0.07 | – | – | > 30 | –
7 | Nc1ncc(-c2ccccc2)nc1C(=O)Nc1cnccc1[C@H]1C[C@@H](O)[C@H](O)[C@@H](CCl)O1 [Example 36, 3-amino-N-(4-((2R,4R,5S,6S)-6-(chloromethyl)-4,5-dihydroxytetrahydro-2H-pyran-2-yl)pyridin-3-yl)-6-phenylpyrazine-2-carboxamide] | 0.001 | 0.03 | – | – | > 30 | –
8 | C[C@H]1O[C@@H](c2ccncc2NC(=O)c2nc(-c3ccccc3)cnc2N)[C@H](F)[C@@H](O)[C@]1(C)O [Example 58, 3-amino-N-(4-((2S,3R,4S,5S,6R)-3-fluoro-4,5-dihydroxy-5,6-dimethyltetrahydro-2H-pyran-2-yl)pyridin-3-yl)-6-phenylpyrazine-2-carboxamide] | 0.28 | 0.66 | – | – | > 30 | –
9 | COc1cc(F)c(-c2nc(C(=O)Nc3cnccc3[C@H]3C[C@@H](N)[C@](C)(O)[C@@H](C)O3)ccc2F)c(F)c1 [Example 242, N-(4-((2R,4R,5S,6R)-4-amino-5-hydroxy-5,6-dimethyltetrahydro-2H-pyran-2-yl)pyridin-3-yl)-6-(2,6-difluoro-4-methoxyphenyl)-5-fluoropicolinamide] | – | – | 0.0099 | > 10 | – | 6
